Laboratory results as given in US12528814B2, “Bifunctional degraders of interleukin-1 receptor-associated kinases and therapeutic use thereof” (NURIX THERAPEUTICS, INC., priority 2020, dated 2026).
Where two headings read alike, the source gives them in different places.

Experiments:
IRAK4 [1] = biological target: T1, IRAK4 (Homo sapiens (Human), UniProt Q9NWZ3); test: IRAK4 Biochemical HTRF Kinase Assay; details: read-out: IRAK4 HTRF biochemical: IC50
Procedure, shortened: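 IC50 values derive from non-linear regression of sixteen concentrations in duplicate. Kinase reaction ran 90 min at ambient temperature after adding 5 μM STK-S1 substrate, 10 mM ATP and 10 mM MgCl2 (reaction-solution levels, pre-dilution to 10 μl); phospho-peptide detected by HTRF after 60 min.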
Target sequence in this assay (Q9NWZ3 whole entry, species assumed): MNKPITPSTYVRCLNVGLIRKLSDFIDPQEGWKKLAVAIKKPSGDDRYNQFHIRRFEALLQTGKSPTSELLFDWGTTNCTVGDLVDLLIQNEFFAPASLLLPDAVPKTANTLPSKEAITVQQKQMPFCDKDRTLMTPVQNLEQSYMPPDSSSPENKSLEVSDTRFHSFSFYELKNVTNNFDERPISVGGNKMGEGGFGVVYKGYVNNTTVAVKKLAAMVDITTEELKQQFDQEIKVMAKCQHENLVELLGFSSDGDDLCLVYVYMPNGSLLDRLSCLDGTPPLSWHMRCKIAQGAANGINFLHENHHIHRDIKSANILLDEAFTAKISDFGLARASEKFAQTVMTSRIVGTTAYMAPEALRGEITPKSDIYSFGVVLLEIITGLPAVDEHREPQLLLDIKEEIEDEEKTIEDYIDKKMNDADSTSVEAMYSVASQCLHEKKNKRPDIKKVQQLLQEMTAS

IRAK4 [2] = biological target: T1, IRAK4; test: IRAK4 Degradation HiBiT Assay; details: HiBiT-tagged Jurkat cells, 4 hrs; for DC50: read-out: Cellular IRAK4 HiBiT: DC50; for Dmax: Jurkat
Target sequence in this assay (Q9NWZ3 whole entry): as the sequence (Q9NWZ3 whole entry, species assumed) above

[3] = read-out: Cellular IRAK4 HiBiT: Dmax, Table 4
[4] = read-out: Cellular IRAK4 HiBiT: Dmax, Table 5, multiple runs

Row | SMILES | IC50 (IRAK4 [1]; Table 5, multiple runs) | DC50 (IRAK4 [2]; Table 5, multiple runs) | IC50 (IRAK4 [1]; Table 4) | Dmax (IRAK4 [2]; [3]) | Dmax (IRAK4 [2]; [4]) | DC50 (IRAK4 [2]; Table 4)
1 | Cc1ncsc1-c1ccc([C@H](C)NC(=O)[C@@H]2C[C@@H](O)CN2C(=O)[C@@H](NC(=O)CCCCCCCCCC(=O)N2CCN(c3nnc(-c4cnc(-c5ccc6cc(C#N)cnn56)cc4NC(C)C)s3)CC2)C(C)(C)C)cc1 [Example 38, (2S,4R)-1-((S)-2-(11-(4-(5-(6-(3-cyanopyrrolo[1,2-b]pyridazin-7-yl)-4-(isopropylamino)pyridin-3-yl)-1,3,4-thiadiazol-2-yl)piperazin-1-yl)-11-oxoundecanamido)-3,3-dimethylbutanoyl)-4-hydroxy-N—((S)-1-(4-(4-methylthiazol-5-yl)phenyl)ethyl)pyrrolidine-2-carboxamide] | 10.4 nM | 128 nM | 10.4 nM | 34% | 34% | 128 nM
2 | CC(C)Nc1cc(-c2ccc3cc(C#N)cnn23)ncc1-c1nnc(N2CCC3(CCN(Cc4ccc5c(c4)C(=O)N(C4CCC(=O)NC4=O)C5=O)CC3)CC2)s1 (stereo not shown) [Example 81, 7-(5-(5-(9-((2-(2,6-dioxopiperidin-3-yl)-1,3-dioxoisoindolin-5-yl)methyl)-3,9-diazaspiro[5.5]undecan-3-yl)-1,3,4-thiadiazol-2-yl)-4-(isopropylamino)pyridin-2-yl)pyrrolo[1,2-b]pyridazine-3-carbonitrile] | 1.8 nM | 64.9 nM | – | – | 81% | –
3 | CC(C)Nc1cc(-c2ccc3cc(C#N)cnn23)ncc1-c1nnc(N2CCN(Cc3ccc4c(c3)C(=O)N(C3CCC(=O)NC3=O)C4=O)CC2)s1 (stereo not shown) [Example 20, 7-(5-(5-(4-((2-(2,6-dioxopiperidin-3-yl)-1,3-dioxoisoindolin-5-yl)methyl)piperazin-1-yl)-1,3,4-thiadiazol-2-yl)-4-(isopropylamino)pyridin-2-yl)pyrrolo[1,2-b]pyridazine-3-carbonitrile] | 2 nM | 660 nM | 2 nM | 29% | 29% | 654 nM
4 | CC(C)Nc1cc(-c2ccc3cc(C#N)cnn23)ncc1-c1nnc(N2CCN(C[C@H]3CCN(c4ccc5c(c4)C(=O)N(C4CCC(=O)NC4=O)C5=O)C3)CC2)s1 (stereo partly drawn) [Example 19, 77-(5-(5-(4-(((3R)-1-(2-(2,6-dioxopiperidin-3-yl)-1,3-dioxoisoindolin-5-yl)pyrrolidin-3-yl)methyl)piperazin-1-yl)-1,3,4-thiadiazol-2-yl)-4-(isopropylamino)pyridin-2-yl)pyrrolo[1,2-b]pyridazine-3-carbonitrile] | 2.2 nM | 90.6 nM | 2.2 nM | 79% | 67% | 90.1 nM
5 | CC(C)Nc1cc(-c2ccc3cc(C#N)cnn23)ncc1-c1nnc(N2CCN(CC3CCN(c4ccc(C(=O)NC5CCC(=O)NC5=O)nc4)CC3)CC2)s1 (stereo not shown) [Example 33, 5-(4-((4-(5-(6-(3-cyanopyrrolo[1,2-b]pyridazin-7-yl)-4-(isopropylamino)pyridin-3-yl)-1,3,4-thiadiazol-2-yl)piperazin-1-yl)methyl)piperidin-1-yl)-N-(2,6-dioxopiperidin-3-yl)picolinamide] | 2.1 nM | > 9980 nM | 2.1 nM | 14% | – | > 10000 nM
6 | CNc1cc(-c2ccc3cc(C#N)cnn23)ncc1-c1nnc([C@H]2CC[C@H](NC(=O)COc3cc(-c4scnc4C)ccc3CNC(=O)[C@@H]3C[C@@H](O)CN3C(=O)[C@@H](NC(=O)C3(F)CC3)C(C)(C)C)CC2)s1 [Example 159, (2S,4R)—N-(2-(2-(((1r,4S)-4-(5-(6-(3-cyanopyrrolo[1,2-b]pyridazin-7-yl)-4-(methylamino)pyridin-3-yl)-1,3,4-thiadiazol-2-yl)cyclohexyl)amino)-2-oxoethoxy)-4-(4-methylthiazol-5-yl)benzyl)-1-((S)-2-(1-fluorocyclopropane-1-carboxamido)-3,3-dimethylbutanoyl)-4-hydroxypyrrolidine-2-carboxamide] | 2.1 nM | 111 nM | – | – | 116% | –
7 | CC(C)Nc1cc(-c2ccc3cc(C#N)cnn23)ncc1-c1nnc(N2CCN(CC3CCN(c4ccc(C(=O)N(C)C5CCC(=O)NC5=O)cc4)CC3)CC2)s1 (stereo not shown) [Example 34, 4-(4-((4-(5-(6-(3-cyanopyrrolo[1,2-b]pyridazin-7-yl)-4-(isopropylamino)pyridin-3-yl)-1,3,4-thiadiazol-2-yl)piperazin-1-yl)methyl)piperidin-1-yl)-N-(2,6-dioxopiperidin-3-yl)-N-methylbenzamide] | 2 nM | 326 nM | 2 nM | 85% | 85% | 326 nM
8 | Cc1ncsc1-c1ccc(CNC(=O)[C@@H]2C[C@@H](O)CN2C(=O)[C@@H](NC(=O)C2(F)CC2)C(C)(C)C)c(OCCCC(=O)N2CCN(c3nnc(-c4cnc(-c5ccc6cc(C#N)cnn56)cc4NC(C)C)s3)CC2)c1 [Example 79, (2S,4R)—N-(2-(4-(4-(5-(6-(3-cyanopyrrolo[1,2-b]pyridazin-7-yl)-4-(isopropylamino)pyridin-3-yl)-1,3,4-thiadiazol-2-yl)piperazin-1-yl)-4-oxobutoxy)-4-(4-methylthiazol-5-yl)benzyl)-1-((S)-2-(1-fluorocyclopropane-1-carboxamido)-3,3-dimethylbutanoyl)-4-hydroxypyrrolidine-2-carboxamide] | 9.8 nM | 137 nM | – | – | 113% | –
9 | CC(C)Nc1cc(-c2ccc3cc(C#N)cnn23)ncc1-c1nnc([C@H]2CC[C@H](NC(=O)CCOCCOCCNc3cccc4c3C(=O)N(C3CCC(=O)NC3=O)C4=O)CC2)s1 (stereo partly shown) [Example 3, N-((1r,4r)-4-(5-(6-(3-cyanopyrrolo[1,2-b]pyridazin-7-yl)-4-(isopropylamino)pyridin-3-yl)-1,3,4-thiadiazol-2-yl)cyclohexyl)-3-(2-(2-((2-(2,6-dioxopiperidin-3-yl)-1,3-dioxoisoindolin-4-yl)amino)ethoxy)ethoxy)propanamide] | 1.9 nM | 30.1 nM | 2.3 nM | 91% | 90% | 32 nM

The next compounds have a lower IC50 (IRAK4 [1]; Table 5, multiple runs) than those just listed; values first:

Row | IC50 (IRAK4 [1]; Table 5, multiple runs) | DC50 (IRAK4 [2]; Table 5, multiple runs) | IC50 (IRAK4 [1]; Table 4) | Dmax (IRAK4 [2]; [3]) | Dmax (IRAK4 [2]; [4]) | DC50 (IRAK4 [2]; Table 4) | SMILES
10 | 1 nM | > 970 nM | – | – | – | – | CNc1cc(-c2ccc3cc(C#N)cnn23)ncc1-c1nnc(N2CCN(C[C@@H]3CCN(c4ccc5c(c4)n(C)c(=O)n5C4CCC(=O)NC4=O)C3)CC2)s1 (stereo partly drawn) [Example 92, 7-(5-(5-(4-(((3S)-1-(1-(2,6-dioxopiperidin-3-yl)-3-methyl-2-oxo-2,3-dihydro-1H-benzo[d]imidazol-5-yl)pyrrolidin-3-yl)methyl)piperazin-1-yl)-1,3,4-thiadiazol-2-yl)-4-(methylamino)pyridin-2-yl)pyrrolo[1,2-b]pyridazine-3-carbonitrile]
11 | 1 nM | 774 nM | – | – | 46% | – | CNc1cc(-c2ccc3cc(C#N)cnn23)ncc1-c1nnc([C@H]2CC[C@@H](NC(=O)C3CCN(c4cccc5c4C(=O)N(C4CCC(=O)NC4=O)C5=O)CC3)CC2)s1 (stereo partly shown) [Example 135, N-((1s,4s)-4-(5-(6-(3-cyanopyrrolo[1,2-b]pyridazin-7-yl)-4-(methylamino)pyridin-3-yl)-1,3,4-thiadiazol-2-yl)cyclohexyl)-1-(2-(2,6-dioxopiperidin-3-yl)-1,3-dioxoisoindolin-4-yl)piperidine-4-carboxamide]
12 | 1 nM | 7.75 nM | – | – | 105% | – | CNc1cc(-c2ccc3cc(C#N)cnn23)ncc1-c1nnc([C@H]2C[C@H](NC(=O)CN3CCN(c4ccc5c(c4)C(=O)N(C4CCC(=O)NC4=O)C5=O)CC3)C2)s1 (stereo partly shown) [Example 190, N-((1r,3r)-3-(5-(6-(3-cyanopyrrolo[1,2-b]pyridazin-7-yl)-4-(methylamino)pyridin-3-yl)-1,3,4-thiadiazol-2-yl)cyclobutyl)-2-(4-(2-(2,6-dioxopiperidin-3-yl)-1,3-dioxoisoindolin-5-yl)piperazin-1-yl)acetamide]
13 | 0.3 nM | 3.59 nM | – | – | 116% | – | CNc1cc(-c2ccc3cc(C#N)cnn23)ncc1-c1nnc(N2CCN(C3CCN(C(=O)c4ccc5c(c4)C(=O)N(C4CCC(=O)NC4=O)C5)CC3)CC2)s1 (stereo not shown) [Example 99, 7-(5-(5-(4-(1-(2-(2,6-dioxopiperidin-3-yl)-3-oxoisoindoline-5-carbonyl)piperidin-4-yl)piperazin-1-yl)-1,3,4-thiadiazol-2-yl)-4-(methylamino)pyridin-2-yl)pyrrolo[1,2-b]pyridazine-3-carbonitrile]
14 | 0.5 nM | 15.1 nM | – | – | 114% | – | CC(C)Nc1cc(-c2ccc3cc(C#N)cnn23)ncc1-c1nnc(N2CCN(C3CCN(C(=O)c4ccc5c(c4)C(=O)N(C4CCC(=O)NC4=O)C5)CC3)CC2)s1 (stereo not shown) [Example 77, 7-(5-(5-(4-(1-(2-(2,6-dioxopiperidin-3-yl)-3-oxoisoindoline-5-carbonyl)piperidin-4-yl)piperazin-1-yl)-1,3,4-thiadiazol-2-yl)-4-(isopropylamino)pyridin-2-yl)pyrrolo[1,2-b]pyridazine-3-carbonitrile]
15 | 1.5 nM | 48.2 nM | – | – | 110% | – | CNc1cc(-c2ccc3cc(C#N)cnn23)ncc1-c1nnc([C@H]2CC[C@H](N(C)C(=O)C[C@H](NC(=O)[C@@H]3C[C@@H](O)CN3C(=O)C(c3cc(C)no3)C(C)C)c3ccc(-c4scnc4C)cc3)CC2)s1 (stereo partly drawn) [Example 191, (2S,4R)—N—((S)-3-(((1r,4S)-4-(5-(6-(3-cyanopyrrolo[1,2-b]pyridazin-7-yl)-4-(methylamino)pyridin-3-yl)-1,3,4-thiadiazol-2-yl)cyclohexyl)(methyl)amino)-1-(4-(4-methylthiazol-5-yl)phenyl)-3-oxopropyl)-4-hydroxy-1-(3-methyl-2-(3-methylisoxazol-5-yl)butanoyl)pyrrolidine-2-carboxamide]
